The text below walks through data of ChEMBL document CHEMBL4420076, “Amylin and calcitonin receptor agonist” (2017).

Usually IC50 stands for the concentration at which inhibition is half-maximal. By solubility is commonly meant how much of the substance goes into solution per volume. A lower solubility goes with little dissolved substance. For orientation: EC50 means the concentration that produces a half-maximal response.

Data set [1] has as its target T1, Amylin receptor AMY3; CALCR/RAMP3 (Homo sapiens, UniProt O60896+P30988).
T1 sequence (P30988 whole entry): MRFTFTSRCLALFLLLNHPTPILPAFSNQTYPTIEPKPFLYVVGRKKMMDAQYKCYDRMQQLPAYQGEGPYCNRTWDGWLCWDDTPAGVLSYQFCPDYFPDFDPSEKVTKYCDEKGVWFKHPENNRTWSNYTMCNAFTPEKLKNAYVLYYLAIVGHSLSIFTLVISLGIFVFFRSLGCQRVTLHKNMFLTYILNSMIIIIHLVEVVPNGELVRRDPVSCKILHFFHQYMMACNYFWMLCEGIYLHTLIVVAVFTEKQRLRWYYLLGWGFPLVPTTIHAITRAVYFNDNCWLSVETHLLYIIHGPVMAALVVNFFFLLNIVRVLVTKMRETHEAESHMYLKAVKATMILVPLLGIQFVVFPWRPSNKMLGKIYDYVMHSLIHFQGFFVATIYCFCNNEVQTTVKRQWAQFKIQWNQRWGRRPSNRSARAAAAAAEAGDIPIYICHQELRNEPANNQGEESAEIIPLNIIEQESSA
T1 sequence (O60896 whole entry): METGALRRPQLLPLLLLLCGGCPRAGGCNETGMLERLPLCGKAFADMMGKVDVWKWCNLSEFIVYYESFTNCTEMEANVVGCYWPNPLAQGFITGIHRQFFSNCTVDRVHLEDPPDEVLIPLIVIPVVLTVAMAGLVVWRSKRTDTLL
The data set is described as follows: Displacement of [125I]-labeled rat amylin from human amylin receptor expressed in BHK tkts13 whole cells co-expressing RAMP3 incubated for 60 mins by scintillation proximity assay. In kind it is cell-based. In general terms: Displacement assays read how much labelled ligand stays bound in the presence of the test substance.

Data set [2] can be described thus: Solubility in 100 mM glycylglycine buffer at pH 3.0 incubated for 18 hrs by UPLC analysis. In kind it is physicochemical.
In data set [3] the target is T1, Amylin receptor AMY3; CALCR/RAMP3. The data set is described as follows: Agonist activity at human amylin receptor expressed in BHK570 cells co-expressing RAMP3 assessed as increase in intracellular cAMP concentration incubated for 3 hrs in absence of albumin by CRE luciferase reporter gene assay. The format is functional, cell-based. (In general: In a reporter assay the amount or activity of a reporter protein is the signal.)

Data set [4] can be described thus: Solubility in 100 mM bistrispropane buffer at pH 8.0 incubated for 18 hrs by UPLC analysis. In kind it is physicochemical.
The nature of data set [5]: Solubility in 100 mM bistrispropane buffer at pH 6.0 incubated for 18 hrs by UPLC analysis. The format is physicochemical.
Data set [6] in a line: Solubility in 100 mM bistrispropane buffer at pH 6.5 incubated for 18 hrs by UPLC analysis. The format is physicochemical.
Data set [7] can be described thus: Solubility in 100 mM bistrispropane buffer at pH 7.0 incubated for 18 hrs by UPLC analysis. In kind it is physicochemical.
A short description of data set [8]: Solubility in 100 mM bistrispropane buffer at pH 7.5 incubated for 18 hrs by UPLC analysis. The format is physicochemical.
Data set [9] is described as follows: Solubility in 100 mM glycylglycine buffer at pH 4.0 incubated for 18 hrs by UPLC analysis. In kind it is physicochemical.
Data set [10] concerns the target T2, Calcitonin receptor (Homo sapiens, UniProt P30988).
T2 sequence (P30988 whole entry): T1 sequence (P30988 whole entry)
The data set is described as follows: Agonist activity at human calcitonin receptor expressed in BHK570 cells assessed as increase in intracellular cAMP concentration incubated for 3 hrs in presence of 10% FBS by CRE luciferase reporter gene assay. In kind it is functional, cell-based.

Data set [11] has as its target T2, Calcitonin receptor. Kind of data set: Agonist activity at human calcitonin receptor expressed in BHK570 cells assessed as increase in intracellular cAMP concentration incubated for 3 hrs in absence of albumin by CRE luciferase reporter gene assay. In kind it is functional, cell-based.

Numbered stars: 1 amine (or outer) side, 2 acyl side, 3 side chain; on linkers, the order of the positions; unused ones are H or OH. Peptide text beside a SMILES is read from it. * marks the point of attachment. C20 diacid = O=C(O)CCCCCCCCCCCCCCCCCCC(=O)*; C18 diacid = O=C(O)CCCCCCCCCCCCCCCCC(=O)*; γGlu = O=C(O)[C@H](CCC(=O)[*:2])N[*:1] Some results are limits rather than exact numbers.

`CC(C)C[C@H](NC(=O)[C@H](C)NC(=O)[C@H](C)NC(=O)[C@@H](NC(=O)[C@H](CO)NC(=O)[C@H](CC(C)C)NC(=O)[C@H](CCC(=O)O)NC(=O)[C@H](CO)NC(=O)[C@H](C)NC(=O)[C@@H](N)CCC(=O)O)[C@@H](C)O)C(=O)NCC(=O)N[C@@H](CCCNC(=N)N)C(=O)N[C@@H](CC(C)C)C(=O)N[C@@H](CO)C(=O)N[C@@H](C)C(=O)N[C@@H](CCC(=O)O)C(=O)N[C@@H](CC(C)C)C(=O)N[C@@H](Cc1cnc[nH]1)C(=O)N[C@@H](CCC(=O)O)C(=O)N[C@@H](CC(C)C)C(=O)N[C@@H](C)C(=O)N[C@H](C(=O)N[C@@H](CC(C)C)C(=O)N1CCC[C@H]1C(=O)N[C@@H](CCCNC(=N)N)C(=O)N[C@H](C(=O)N[C@@H](CCC(=O)O)C(=O)N[C@H](C(=O)NCC(=O)N1CCC[C@H]1C(=O)N[C@@H](CCC(=O)O)C(=O)N[C@@H](CO)C(=O)N1CCC[C@H]1C(=O)O)[C@@H](C)O)[C@@H](C)O)[C@@H](C)O` (H-EASELSTAALGRLSAELHELATLPRTETGPESP-OH): the IC50 in [1] was 294000 pM.
For `CC[C@H](C)[C@H](NC(=O)[C@H](CCC(=O)O)NC(=O)[C@H](CO)NC(=O)[C@H](C)NC(=O)[C@H](CCC(=O)O)NC(=O)CCCCCCCCCCCCCCCCC(=O)O)C(=O)N[C@@H](CO)C(=O)N[C@H](C(=O)N[C@@H](C)C(=O)N[C@@H](C)C(=O)N[C@@H](CC(C)C)C(=O)NCC(=O)N[C@@H](CCCNC(=N)N)C(=O)N[C@@H](CC(C)C)C(=O)N[C@@H](CO)C(=O)N[C@@H](C)C(=O)N[C@@H](CCC(=O)O)C(=O)N[C@@H](CC(C)C)C(=O)N[C@@H](Cc1cnc[nH]1)C(=O)N[C@@H](CCC(=O)O)C(=O)N[C@@H](CC(C)C)C(=O)N[C@@H](C)C(=O)N[C@H](C(=O)N[C@@H](CC(C)C)C(=O)N1CCC[C@H]1C(=O)N[C@@H](CCCNC(=N)N)C(=O)N[C@H](C(=O)N[C@@H](CCC(=O)O)C(=O)N[C@H](C(=O)NCC(=O)N1CCC[C@H]1C(=O)N[C@@H](CCC(=O)O)C(=O)N[C@@H](CO)C(=O)N1CCC[C@H]1C(N)=O)[C@@H](C)O)[C@@H](C)O)[C@@H](C)O)[C@@H](C)O` ({C18 diacid}-EASEISTAALGRLSAELHELATLPRTETGPESP-NH2), the solubility at 18 h in data set [2], in data set [4], in [5], in data set [6], in [7] and in data set [8] was at least 200 µM in each case. In data set [3], the EC50 is 7 pM. In addition, the half-inhibitory concentration (IC50) in data set [1] was 429 pM.
As for `CC(C)C[C@H](NC(=O)[C@H](C)NC(=O)[C@H](C)NC(=O)[C@@H](NC(=O)[C@H](CO)NC(=O)[C@H](CC(C)C)NC(=O)[C@H](CCC(=O)O)NC(=O)[C@H](CO)NC(=O)[C@H](C)NC(=O)CC[C@H](NC(=O)CCCCCCCCCCCCCCCCCCC(=O)O)C(=O)O)[C@@H](C)O)C(=O)NCC(=O)N[C@@H](CCCNC(=N)N)C(=O)N[C@@H](CC(C)C)C(=O)N[C@@H](CO)C(=O)N[C@@H](C)C(=O)N[C@@H](CCC(=O)O)C(=O)N[C@@H](CC(C)C)C(=O)N[C@@H](Cc1cnc[nH]1)C(=O)N[C@@H](CCC(=O)O)C(=O)N[C@@H](CC(C)C)C(=O)N[C@@H](C)C(=O)N[C@H](C(=O)N[C@@H](Cc1ccc(O)cc1)C(=O)N1CCC[C@H]1C(=O)N[C@@H](CCCNC(=N)N)C(=O)N[C@H](C(=O)N[C@@H](CCC(=O)O)C(=O)N[C@H](C(=O)NCC(=O)N[C@@H](CO)C(=O)NCC(=O)N[C@@H](CO)C(=O)N[C@@H](Cc1ccc(O)cc1)C(=O)O)[C@@H](C)O)[C@@H](C)O)[C@@H](C)O` ({C20 diacid-γGlu}-ASELSTAALGRLSAELHELATYPRTETGSGSY-OH), the solubility at 18 h in [2], in data set [4], in data set [5], in [6], in data set [7] and in data set [8] was at least 200 µM each time. In [1], the IC50 was 92000 pM.
With `CC(C)C[C@H](NC(=O)[C@H](C)NC(=O)[C@H](C)NC(=O)[C@@H](NC(=O)[C@H](CO)NC(=O)[C@H](CC(C)C)NC(=O)[C@H](CCC(=O)O)NC(=O)[C@H](CO)NC(=O)[C@H](C)NC(=O)CC[C@H](NC(=O)CCCCCCCCCCCCCCCCCCC(=O)O)C(=O)O)[C@@H](C)O)C(=O)NCC(=O)N[C@@H](CCCNC(=N)N)C(=O)N[C@@H](CC(C)C)C(=O)N[C@@H](CO)C(=O)N[C@@H](C)C(=O)N[C@@H](CCC(=O)O)C(=O)N[C@@H](CC(C)C)C(=O)N[C@@H](Cc1cnc[nH]1)C(=O)N[C@@H](CCC(=O)O)C(=O)N[C@@H](CC(C)C)C(=O)N[C@@H](CO)C(=O)N[C@H](C(=O)N[C@@H](Cc1ccc(O)cc1)C(=O)N1CCC[C@H]1C(=O)N[C@@H](CCCNC(=N)N)C(=O)N[C@H](C(=O)N[C@@H](CCC(=O)O)C(=O)N[C@H](C(=O)NCC(=O)N[C@@H](CO)C(=O)NCC(=O)N[C@@H](CO)C(=O)N1CCC[C@H]1C(N)=O)[C@@H](C)O)[C@@H](C)O)[C@@H](C)O` ({C20 diacid-γGlu}-ASELSTAALGRLSAELHELSTYPRTETGSGSP-NH2), the solubility at 18 h in data set [2], in [9], in data set [4], in data set [5], in data set [6] and in data set [7] was at least 200 µM in each case. Further, the solubility at 18 h in data set [8] was at least 200 µM. For the same compound, the half-maximal effective concentration (EC50) is 33 pM in [3], 30 pM on Calcitonin receptor [10] and 27 pM on Calcitonin receptor [11].
As for `CC(C)C[C@H](NC(=O)[C@H](CO)NC(=O)[C@H](C)NC(=O)[C@@H](NC(=O)[C@H](CO)NC(=O)[C@H](CC(C)C)NC(=O)[C@H](CCC(=O)O)NC(=O)[C@H](CO)NC(=O)[C@H](C)NC(=O)CC[C@H](NC(=O)CCCCCCCCCCCCCCCCCCC(=O)O)C(=O)O)[C@@H](C)O)C(=O)NCC(=O)N[C@@H](CCCNC(=N)N)C(=O)N[C@@H](CC(C)C)C(=O)N[C@@H](CO)C(=O)N[C@@H](C)C(=O)N[C@@H](CCC(=O)O)C(=O)N[C@@H](CC(C)C)C(=O)N[C@@H](Cc1cnc[nH]1)C(=O)N[C@@H](CCC(=O)O)C(=O)N[C@@H](CC(C)C)C(=O)N[C@@H](C)C(=O)N[C@H](C(=O)N[C@@H](Cc1ccc(O)cc1)C(=O)N1CCC[C@H]1C(=O)N[C@@H](CCCNC(=N)N)C(=O)N[C@H](C(=O)N[C@@H](CCC(=O)O)C(=O)N[C@H](C(=O)NCC(=O)N[C@@H](CO)C(=O)NCC(=O)N[C@@H](CO)C(=O)N[C@@H](Cc1ccc(O)cc1)C(N)=O)[C@@H](C)O)[C@@H](C)O)[C@@H](C)O` ({C20 diacid-γGlu}-ASELSTASLGRLSAELHELATYPRTETGSGSY-NH2), the solubility at 18 h in [2], in data set [4], in data set [5], in data set [6], in [7] and in data set [8] was at least 200 µM in each case. For the same compound, the EC50 was 37 pM in data set [3] and 42 pM at Calcitonin receptor [10].
